# Experimental data reported in patent publication US4691046A, “Butanedioic acid mono [(2-dimethylamino] ethyl ester)succinate” (Institut Organicheskoi Khimii Ordena Lenina I Ordena …, priority 1986, dated 1987).
# Tests used:
# [1] = Stresso-protective activity, motion stress in slowly rotating drum for 48 hours; format: in vivo, rats; conditions: 48 h motion stress
# Experimental: In evaluation of the stresso-protective activity of the compound according to the present invention as a model use was made of a procedure of depriving rats of sleep, meals and water in a slowly rotating drum (at the speed of 0.2 km/h).
# The experiments were carried out on 42 nondescript male rats. In parallel experiments the antistress activity of butanedioic acid mono[(2-dimethylamino)ethyl ester] was studied; as the reference prepartion use was made of the prior art tranquilizer--diazepam which was used in the experiments for this very indication.
# 4 groups of animals were tested in parallel. Groups I and II were placed for 48 hours into a slowly rotating drum, groups III and IV were under normal conditions and were deprived only of meals and water. The compound according to the present invention and butanedioic acid mono[(2-dimethylamino)ethyl ester] were administered intraperitoneally in the dose of 10 mg/kg four times (2 times a day) in the volume of 2.5 ml/kg under the conditions of motion stress (Group I of the animals) and under normal conditions (Group III of animals). The control animals--Group II (active control) and Group IV (passive control) were given a physiological solution. The efficiency of the compound according to the present invention, of butanedioic acid mono[(2-dimethylamino)ethyl ester] and of diazepam was estimated on the basis of a set of characteristics showing the functional activity of the central nervous system, physical fitness and development of basic symptoms of the stress-syndrome.
# The residence of control rats in a slowly-rotating drum over 48 hours results in a noticeable deterioration of all the studied characteristics, especially those of higher nervous activity (learning) and development of stress-syndrome. The state of control animals was characterized by lowering of the overall behavioural activity as determined by the "open-field" test (37±15%) with reference to the passive control level, by a reduction in the speed of development of a conventional avoiding response in an aqueous labyrinth (58±15%), by an increase in the number of mistakes during the teaching time (175±25%), lowering of the ultimate physical endurance as determined by the swimming-with-load test (the load is equal to 10% by mass of the body (70±17%), adrenal hypertrophy (146±16%), thymus atrophy (49±9%) and formation of ulcers on the stomach mucous membrane (5.25±1.0%).
# Succinatedehydrogenase = assay: Activity of succinatedehydrogenase in myocardium upon low-temperature treatment; format: in vivo, mice; conditions: 2.5 hours at -14° C.; 80 mg/kg (invention) or 64 mg/kg (ester); control 72.3 ± 1.6
# Experimental: (§2) The preparations were administered one hour before the standard low-temperature treatment (-14° C.) in doses of 80 mg/kg of the compound according to the present invention and 64 mg/kg of the prior art compound-butanedioic acid mono[(2-dimethylamino)-ethyl ester].
# Isocitratedehydrogenase = assay: Activity of isocitratedehydrogenase in myocardium upon low-temperature treatment; format: in vivo, mice; conditions: 2.5 hours at -14° C.; 80 mg/kg (invention) or 64 mg/kg (ester); control 49.5 ± 1.2
# Experimental: as §2
# Pyruvatedehydrogenase = assay: Activity of pyruvatedehydrogenase in myocardium upon low-temperature treatment; format: in vivo, mice; conditions: 2.5 hours at -14° C.; 80 mg/kg (invention) or 64 mg/kg (ester); control 56.6 ± 1.1
# Experimental: as §2
# [2] = Blood glucose and organ glycogen upon predetermined (2.5 h) cold treatment (adaptation experiment); format: in vivo, mice; conditions: adaptation + preparation immediately after adaptation, 80 mg/kg (invention) or 64 mg/kg (ester), 2.5 h at -14° C.
# Experimental: (§1) To elucidate the effect of the compound according to the present invention on the adaptation phenomenon, experiments on male mice with a body mass of 18-20 g were carried out in conformity with the Le Blanc procedure according to which the mice were placed into a cold chamber (at -17° C.) for 10 minutes ever hour over the period of 9-10 hours. After one day the maximum lifespan of the mice at -17° C. was assessed along with the content of glucose in blood and of glycogen in organs upon a predetermined cold treatment (2.5 hours a -14° C.). The compound according to the present invention and butanedioic acid mono[(2-dimethylamino)-ethyl ester] (in doses of 80 and 64 mg/kg respectively) were introduced immediately after a series of short-time cold effects. In a number of experiments the compound according to the present invention was administered 1 hour prior to the testing (2.5 h) cold effect.
# Glutamatedehydrogenase = assay: Activity of glutamatedehydrogenase in myocardium upon low-temperature treatment; format: in vivo, mice; conditions: 2.5 hours at -14° C.; 80 mg/kg (invention) or 64 mg/kg (ester); control 68.8 ± 1.5
# Experimental: as §2
# [3] = system: NAD-Ph--H2 --dehydrogenase; assay: Activity of NAD-Ph-H2-dehydrogenase in myocardium upon low-temperature treatment; format: in vivo, mice; conditions: 2.5 hours at -14° C.; 80 mg/kg (invention) or 64 mg/kg (ester); control 72.1 ± 1.4
# Experimental: as §2
# [4] = Survival of mice on acute cooling; format: in vivo; conditions: i.p. 1 hour before, 80 mg/kg (invention), 64 mg/kg (ester), 17 mg/kg (sodium succinate)
# Experimental: The activity of the compound according to the present invention was studied in experiments on animals. The effectivemess of the compound according to the present invention was studied for resistance against an acute cold effect in comparison with conventional preparations such as butanedioic acid mono[(2-dimethylamino)ethyl ester] and sodium succinate.
# The experiments were carried out on male mice (tetrahybdrids) with a body mass of 18-20 g which were placed into a cold chamber at a temperature of -15t to -17° C. in separate plastic cages slightly limiting their activity. […] The preparations were administered intraperiotoneally 1 hour before the cold effect the control animals were administered with a physiological solution.
# [5] = Maximum duration of mice lifespan upon testing cold treatment (Le Blanc adaptation procedure); format: in vivo; conditions: with preliminary adaptation; 80 mg/kg (invention) or 64 mg/kg (ester); adaptation alone 6.0 ± 0.3
# Experimental: as §1
# [6] = Biochemical substrates in mice upon preset (2.5 hours) low-temperature treatment; conditions: 2.5 hours at -14° C., 1 hour after 80 mg/kg (invention) or 64 mg/kg (ester)
# Experimental: as §2
# NADH2 --dehydrogenase = assay: Activity of NADH2-dehydrogenase in myocardium upon low-temperature treatment; format: in vivo, mice; conditions: 2.5 hours at -14° C.; 80 mg/kg (invention) or 64 mg/kg (ester); control 69.8 ± 1.5
# Experimental: as §2
# [7] = system: Glucose-6-phosphatedehydrogenase; assay: Activity of glucose-6-phosphatedehydrogenase in myocardium upon low-temperature treatment; format: in vivo, mice; conditions: 2.5 hours at -14° C.; 80 mg/kg (invention) or 64 mg/kg (ester); control 57.3 ± 1.3
# Experimental: as §2
smiles,measurement,setting,value
CN(C)CCOC(=O)CCC(=O)O [Butanedioic acid mono[(2-dimethylamino)ethyl ester]] [reference compound],stresso-protective activity compared with the compound of the invention,[1]; in words,far less pronounced
same,Weight coefficient of thymus,"[1]; 10 mg/kg i.p. four times (invention, ester), control 0.95 ± 0.18, 10 mg/kg",1.08 g/kg of the initial body mass
same,Weight coefficient of adrenal glands,"[1]; 10 mg/kg i.p. four times (invention, ester), control 1.246 ± 0.028, 10 mg/kg",1.42 g/kg of the initial body mass
same,Number of attempts till reaching the learning criterion (water labyrinth),"[1]; 10 mg/kg i.p. four times (invention, ester), control 4.75 ± 0.5, 10 mg/kg",4.10
same,Number of ulcers on the stomach mucous membrane,"[1]; 10 mg/kg i.p. four times (invention, ester), control 5.25 ± 1.0, 10 mg/kg",4.2
same,Duration of swimming,"[1]; 10 mg/kg i.p. four times (invention, ester), control 244 ± 26, 10 mg/kg",325 s
same,Activity of succinatedehydrogenase in myocardium,Succinatedehydrogenase,75.6 ± 2.4 relative units
same,Activity of isocitratedehydrogenase in myocardium,Isocitratedehydrogenase,58.2 ± 1.4 relative units
same,Activity of pyruvatedehydrogenase in myocardium,Pyruvatedehydrogenase,62.6 ± 3.5 relative units
same,"Glycogen, heart",[2]; control 1.7 ± 0.2,2.4 ± 0.2 mg/g
same,"Glycogen, liver",[2]; control 6.7 ± 0.4,10.2 ± 2.7 mg/g
same,Blood glucose,[2]; control 37 ± 6,75 ± 4 mg. %
same,Activity of glutamatedehydrogenase in myocardium,Glutamatedehydrogenase,72.4 ± 0.6 relative units
same,Activity of NAD-Ph-H2-dehydrogenase in myocardium,[3],76.4 ± 2.7 relative units
same,"Survival, %, 1 hour",[4]; 1 hour of cold at -15 to -17° C.,100%
same,"Survival, %, 2 hours",[4]; 2 hours of cold at -15 to -17° C.,90%
same,"Survival, %, 3 hours",[4]; 3 hours of cold at -15 to -17° C.,70%
same,"Survival, %, 4 hours",[4]; 4 hours of cold at -15 to -17° C.,50%
same,"Survival, %, 5 hours",[4]; 5 hours of cold at -15 to -17° C.,20%
same,"Survival, %, 6 hours",[4]; 6 hours of cold at -15 to -17° C.,10%
same,"Lifespan in hours (at -17° C.), preliminary adaptation + preparation",[5],6.2 ± 0.4 h
same,Liver glycogen,"[6]; control 8.1 ± 0.6, intact 35.2 ± 4.5",6.7 ± 0.8 mg/kg
same,Blood glucose,"[6]; control 42 ± 4, intact 79 ± 3",64 ± 2 mg. %
same,Creatine phosphate,"[6]; myocardium, control 1.2 ± 0.08, intact 3.7 ± 0.3",1.4 ± 0.04 μm/g
same,Activity of NADH2-dehydrogenase in myocardium,NADH2 --dehydrogenase,70.8 ± 2.7 relative units
same,Activity of glucose-6-phosphatedehydrogenase in myocardium,[7],60.2 ± 1.4 relative units
